Assay results from PubChem BioAssay AID179 (DTP/NCI, 2004).
Calls of active or inactive are those of the source.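 How the source made its calls: active means compounds giving half or more protection of infected cells from virus-caused growth loss, again on retest; inactive means the rest.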 Where a SMILES comes first, the peptide text is derived from it. [ ]: non-standard residue; d: D form. The star is where a group is joined. ξ: configuration not given here. NMeF = CN[CH](Cc1ccccc1)C(=O)O; ξNMe2Val = CC(C)C(C(=O)*)N(C)C; NMeV = CN[CH](C(=O)O)C(C)C; OtBu = CC(C)(C)O*

Tested on: CEM cells HIV-1 protection, formazan growth assay
Assay: NCI AIDS Antiviral Assay
Conditions: for IC50: measured here: growth of uninfected CEM cells
Summary of the method: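 Five concentrations of each compound were applied to infected and uninfected human CEM cells. Protection from HIV-1 was judged from growth measured with a soluble formazan assay.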

SMILES | EC50 | IC50 | outcome
O=C(O)CCC1NC(/C(=C/c2ccccc2O)NC(=O)c2ccccc2)OC1=O (configuration not stated) | > 151 µM | > 151 µM | –
COc1ccc(/C(C)=C2\CCCN(Cc3ccccc3)C2)cc1 | > 200 µM | 30.9 µM | –
CCCCC(/C=C\COC1CCCCO1)=C/C(=O)OCC (configuration not stated) | > 126 µM | 77.6 µM | –
CC12CCCC1C1CC=C3CC(SC4CCC5(C)C(=CCC6C7CCCC7(C)CCC65)C4)CCC3(C)C1CC2 (configuration not stated) | > 200 µM | > 200 µM | –
c1ccc(OCC2CO2)c(OCC2CO2)c1 (configuration not stated) | > 1120 µM | 3.98 µM | –
CC1(C)[C@H]2Cc3cc4nc5ccccn5c4cc3[C@@H]1C2 | > 200 µM | 24 µM | –
COC(=O)NC(Nc1ccc(Cl)cc1Cl)(C(F)(F)F)C(F)(F)F | – | – | inactive
COc1ccc(/C=C/C(=O)c2c(-c3ccccc3)nn(C)c(=O)c2N2CCCCC2)cc1 | 15.8 µM | 19.1 µM | –
CC[C@@]1(O)C(=O)OCc2c1cc1n(c2=O)Cc2c-1nc1ccccc1c2Cl | > 10 µM | 0.0331 µM | –
Cn1c(=O)c2nc(-c3ccccc3)nnc2n(C)c1=O | > 200 µM | 93.3 µM | –
Fc1cccc(C2SCc3nc4ncccc4n32)c1 (configuration not stated) | > 132 µM | > 132 µM | –
C=C1CN(S(=O)(=O)c2ccc(C)cc2)CCCN(CCCC)CCCN(S(=O)(=O)c2ccc(C)cc2)C1 | > 200 µM | 1.91 µM | –
CC(=O)OCC1(CNc2nc(N)ncc2C#N)CC(CCc2ccccc2)C1 (configuration not stated) | > 200 µM | 17.4 µM | –
CCCCCCCCCCCCN1[C@H]2CCC[C@H]2C(O)[C@@H]2CCC[C@@H]21 (some centres not stated) | > 200 µM | 4.9 µM | –
CCOC(=O)c1c(-c2ccccc2)nc2c(OC)nccn12 | > 200 µM | 126 µM | –
CCC1(CCC#N)CCC(N)=CC1=O (configuration not stated) | > 200 µM | > 200 µM | –
N=c1n(CC(=O)NC23CC4CC(CC(C4)C2)C3)c2ccccc2n1Cc1ccccc1 | > 79.4 µM | 14.1 µM | –
CC1=C/C(=C(\c2cc(C)c(O)c(C(=O)O)c2)c2c(Cl)cccc2Cl)C=C(C(=O)O)C1=O | – | – | inactive
OC1CC=C2CCN3Cc4cc5c(cc4C1C23)OCO5 (configuration not stated) | – | – | inactive
c1ccc(-c2ccc(-c3cc4ccccc4[nH]3)cc2)cc1 | > 200 µM | > 200 µM | –
Cc1ccc(Cc2n[nH]c(=O)n2N2C(=O)c3ccccc3C2=O)cc1 | > 200 µM | > 200 µM | –
Oc1ccc2ccccc2c1OCc1nnc(CCCCCCCCc2nnc(COc3c(O)ccc4ccccc34)n2Nc2ccccc2)n1Nc1ccccc1 | > 2 µM | > 2 µM | –
O=c1[nH]ncc2c1Sc1cn[nH]c(=O)c1S2 | > 10.7 µM | > 10.7 µM | –
CNS(=O)(=O)c1c(NC=O)ncn1C | > 1150 µM | > 1150 µM | –
Cc1cn([C@@H]2C[C@](C)(CO)N(C)O2)c(=O)[nH]c1=O | > 200 µM | > 200 µM | –
O=[N+]([O-])c1ccc(/C=C/c2csnn2)cc1 | > 562 µM | 229 µM | –

SMILES | EC50 | IC50 | outcome
[Pd+2].[S-]c1ncccn1.[S-]c1ncccn1 | > 200 µM | 0.107 µM | –
COc1ccccc1NC(=O)/C(C=NC(=S)C(N)=S)=C(\C)O | – | – | inactive
CCOC(=O)C1C(C(=O)OCC)N2c3ccccc3-c3cccnc3[C@@H]2[C@H]1C(=O)OCC (some centres not stated) | > 100 µM | 95.5 µM | –
S=C(N/N=C(/c1ccccc1)c1ccccn1)Nc1ccccc1Cl | > 0.2 µM | 0.0871 µM | –
O=C(Cc1nc2ccccc2o1)C(=O)Nc1cccc(Cl)c1 | – | – | inactive
COC(=O)N/N=C(/CCCC(=O)Nc1cccc([N+](=O)[O-])c1)C(C#N)c1ccc(CC#N)cc1 (configuration not stated) | – | – | inactive
[N-]=[N+]=Nc1c([N+](=O)[O-])c(=O)n(-c2ccccc2)c2ccccc12 | > 200 µM | 13.5 µM | –
COC(=O)C(C(=O)C(=O)Nc1nc(=S)[nH][nH]1)c1csc(-n2nc(-c3ccccc3)cc2-c2ccccc2)n1 (configuration not stated) | > 69.2 µM | > 69.2 µM | –
CC(=O)/C(=C/c1ccc([N+](=O)[O-])cc1)C(=O)c1ccccc1 | > 87.1 µM | 16.6 µM | –
COC(=O)C1=C(C(=O)OC)SC(=C2C(=O)c3ccccc3-c3ccccc32)S1 | – | – | inactive
COc1ccc(/C(=N\N)C2=NNC3(CCCCC3)NN2)cc1 | – | – | inactive
O=C1c2ccccc2NC2(C(=O)Nc3ccccc32)N1N1CCOCC1 (configuration not stated) | > 200 µM | > 200 µM | –
CC(C)CC(NC(=O)CNC(=O)C(CC(C)C)NC(=O)C(Cc1c[nH]cn1)NC(=O)C(CC(N)=O)NC(=O)C(C)NC(=O)C1CCCN1C(=O)C(Cc1ccc(O)cc1)NC(=O)C1CCCN1C(=O)C(C)NC(=O)C(CCC(=O)O)NC(=O)C(CC(=O)O)NC(=O)C(Cc1ccccc1)NC(=O)C(CC(N)=O)NC(=O)C(C)N)C(=O)O (configuration not stated) (H-ANFDEAPYPANHLGL-OH; configuration not given here) | > 38 µM | > 38 µM | –
O=[N+]([O-])c1ccccc1S(=O)(=O)c1ccccc1 | 18.2 µM | 170 µM | –
C1CCC(N=C2N(C3CCCCC3)C(=NC3CCCCC3)N2C2CCCCC2)CC1 | > 9.12 µM | > 9.12 µM | –
N#Cc1cnn2c1n[n+]([O-])c1ccc(Cl)cc12 | > 100 µM | 7.76 µM | –
Cn1c(-c2ccc(/C=N/NC(=S)N/N=C/c3ccc(-c4c[n+]5ccsc5n4C)cc3)cc2)c[n+]2ccsc12 | > 200 µM | 117 µM | –
CCOC(=O)C1=C(c2ccccc2)NC(c2ccccc2)=C(C(=O)OCC)c2c1c(=O)cc[nH]c2=O | > 53.7 µM | > 53.7 µM | –
C=C1CCC[C@@H]2[C@@](C)(Cc3cc(O)ccc3O)C(C)CC[C@]12C (some centres not stated) | > 60.3 µM | 0.708 µM | –
CC(C)C(C(=O)N(C)C(Cc1ccccc1)C(=O)N(C)C(C(=O)N(C)C(C(=O)N1CCCC1C(=O)OC(C)(C)C)C(C)C)C(C)C)N(C)C (configuration not stated) (ξNMe2Val-[NMeF][NMeV][NMeV]P-OtBu; configuration not given here) | 24.5 µM | 110 µM | –
O=C(Nc1nccs1)Nc1cc(C(F)(F)F)ccc1Cl | > 200 µM | > 200 µM | –
O=C(C(=Cc1ccc(F)cc1)C(=O)c1ccccc1)c1ccccc1 | > 110 µM | > 100 µM | –
CO/N=C1\CC(NC(=O)CNC(=O)OC(C)(C)C)c2ccsc21 (configuration not stated) | > 200 µM | > 200 µM | –
CCc1cccc(C)c1NC(=O)C(=O)Cc1nc2ccccc2s1 | – | – | inactive
Nc1nc(N)c(N=Nc2ccc(S(=O)(=O)NC(=O)c3ccccc3)cc2)c(=O)[nH]1 | > 200 µM | > 200 µM | –
NC(=O)c1ccc(N=Nc2c(O)c3ccccc3[nH]c2=O)cc1 | > 200 µM | > 200 µM | –

SMILES | EC50 | IC50 | outcome
C[PH+](C)CC[PH+](C)C.[C-]#[O+].[C-]#[O+].[C-]#[O+].[Fe] | > 200 µM | > 200 µM | –
Nc1nc2ccc(Sc3ccc4nc(N)[nH]c(=O)c4c3)cc2c(=O)[nH]1 | > 100 µM | > 100 µM | –
O=[N+]([O-])/C(C(Cl)=C(Cl)Cl)=C1\Nc2ccccc2O1 | > 200 µM | 97.7 µM | –
N=[N+]=CC(=O)OCC(N)C(=O)O (configuration not stated) | > 200 µM | 2.88 µM | –
CC(C)[C@@H](C)[C@@]1(C)C[C@@H]1[C@@H](C)[C@H]1CC[C@@H]([C@@H]2CC=C3C[C@@H](O)CC[C@]3(C)C2=O)[C@]1(C)CCO | > 200 µM | 8.51 µM | –
COc1cc(-c2[nH]ncc2CCCC(=O)Nc2ccccc2[N+](=O)[O-])ccc1O | – | – | inactive
OCCN=C1c2ccccc2C2C(c3ccccc31)C1c3ccccc3C(=NCCO)c3ccccc3C21 (configuration not stated) | > 200 µM | 24 µM | –
CC(C)C(=O)OCN(C)c1nc(N(C)COC(=O)C(C)C)nc(N(C)COC(=O)C(C)C)n1 | > 200 µM | 18.6 µM | –
CCC(C)C(NC(=O)CNC(=O)C(C)NC(=O)CNC(=O)C(NC(=O)C(NC(=O)C(CO)NC(=O)C(Cc1cnc[nH]1)NC(=O)C(N)CCCCN)C(C)CC)C(C)CC)C(=O)NC(CCCCN)C(=O)NC(CCCCN)C(=O)NC(CCCN=C(N)N)C(=O)NC(Cc1ccccc1)C(=O)NC(CC(C)C)C(=O)NC(CCC(N)=O)C(=O)O (configuration not stated) (H-KHSIIGAGIKKRFLQ-OH; configuration not given here) | – | – | inactive
CC1(O)CC2C(CC1SC1CC3C(CC1(C)O)C3(C)C)C2(C)C (configuration not stated) | > 200 µM | > 200 µM | –
c1cc2cc(c1)CNCCNCCNCc1cccc(c1)CNCCNCCNC2 | > 138 µM | 60.3 µM | –
Cc1cccc(C)c1NC(=O)CCc1nnc2s/c(=C\c3ccc(Cl)cc3)c(=O)n12 | > 1.7 µM | > 1.7 µM | –
CC(=O)NC1C(OCC(=O)NC(C)C(=O)NC(CCC(=O)NCCCCCNc2ccc([N+](=O)[O-])c3[nH]c4ccccc4c(=O)c23)C(N)=O)C(O)C(CO)OC1(C)OCc1ccccc1 (configuration not stated) | > 100 µM | 3.39 µM | –
CN(NC(=O)/C(=C/c1cc(Cl)cc(Cl)c1O)NC(=O)c1ccccc1)c1cnn(-c2ccccc2)c(=O)c1Cl | > 200 µM | 37.2 µM | –
Cc1cc2c3ccccc3n(C)c2c2c1C(=O)C=CC2=O | > 69.2 µM | 5.89 µM | –
Nc1ccc2c3c(ccc([N+](=O)[O-])c13)CC2 | > 200 µM | 102 µM | –
CC(C)(C)c1ccc(OP(=S)(NN)Oc2ccc(C(C)(C)C)cc2)cc1 | > 61.7 µM | 30.2 µM | –
C#CCCCC(=C)C[C@@H]1OC(=O)[C@H](C)[C@@H]1O | > 200 µM | > 200 µM | –
CNc1ncnc2c1nc(NC1CCCC1)n2C1OC(CO)C(O)C1O (configuration not stated) | > 200 µM | > 200 µM | –
Cc1nn(C(=O)CC(=O)Nc2ccc(Cl)cc2)c(C)c1N=Nc1ccccc1F | – | – | inactive
Cc1cc(N(CCC#N)CCC#N)ccc1/C=C1N=C(/C=C\c2ccccc2)N(NC(=O)CC(=O)Nc2ccccc2Cl)C\1=O | – | – | inactive
CO/N=C(\C(=O)Nc1cncs1)c1csc(NC(c2ccccc2)(c2ccccc2)c2ccccc2)n1 | > 200 µM | > 200 µM | –
CCOC(=O)C(/C=N\C(=S)Nc1c(CC)cccc1C(C)(C)C)=C(/O)c1ccccc1 | > 200 µM | > 200 µM | –
Cc1ccc(N=C(SSC(Cl)(Cl)Cl)SSC(Cl)(Cl)Cl)cc1 | – | – | inactive
O=C1CSC(c2cccc(Cl)c2)N1c1ccc(-n2c(-c3ccccc3)nc3ccccc3c2=O)cc1 (configuration not stated) | > 200 µM | 138 µM | –
OC[P+](CO)(CO)C12CC3CC(CC(C3)C1)C2 | > 200 µM | 41.7 µM | –
